Series [1] has as its system respiratory syncytial virus (RSV). As to the kind of experiment: Anti-RSV activity assay (RT-qPCR). The format is cell-based. As to conditions: human respiratory syncytial virus, HEp-2 cells, mean ± SEM, read-out: Inhibition rate (%) of RSV replication. From the text: Remdesivir was selected and evaluated as a positive control.
Series [2] deals with human leukemia cell line K-562. The settings on record: cited from earlier work.
Series [3] relates to K-562 (human myeloid leukemia cell). Nature of the series: CCK-8 anti-proliferation assay, K-562. The class given is cell-based. As to conditions: 48 h, mean ± SEM. Here is the method: (§1) One concentration was set for each sample during preliminary screening and three multiple holes were set for each concentration. Eight concentration gradients were set for each sample for IC50 determination and three multiple holes were set for each concentration. […] The absorbance was measured at 450 nm with an enzyme labeling instrument and the original data and results were recorded. […] Doxorubicin was used as a positive control. All the cancer cell lines were obtained from Qingdao AC biotechnology Co., LTD, Qingdao, China.

Series [4] deals with A549 (human lung adenocarcinoma cell). As to the kind of experiment: CCK-8 anti-proliferation assay, A549. The format is cell-based. As to conditions: A549, 48 h, at 20 µM, mean ± SEM, read-out: Inhibition Rate (%). The procedure:
as §1

The test system of series [5] is MKN-45 (human gastric cancer cell). Nature of the series: CCK-8 anti-proliferation assay, MKN-45. The settings on record: at 20 µM, 48 h, mean ± SEM, read-out: Inhibition Rate (%). The format is cell-based. The procedure: as §1
For orientation: Tetrazolium dyes change colour on reduction, which living cells bring about.

In series [6] the test system is HCT 116 (human colorectal cancer cell). Nature of the series: CCK-8 anti-proliferation assay, HCT 116. The class given is cell-based. The settings on record: at 20 µM, 48 h, mean ± SEM, read-out: Inhibition Rate (%). Here is the method:
as §1

In series [7] the test system is HeLa (human cervical cancer cell). As to the kind of experiment: CCK-8 anti-proliferation assay, HeLa. As to conditions: at 20 µM, 48 h, mean ± SEM, read-out: Inhibition Rate (%). The class given is cell-based. The procedure:
as §1

In series [8] the test system is 786-O (human renal cancer cell). As to the kind of experiment: CCK-8 anti-proliferation assay, 786-O. The format is cell-based. As to conditions: 786-0, at 20 µM, 48 h, mean ± SEM, read-out: Inhibition Rate (%). Here is the method: as §1
Series [9] has as its system TE-1 (human esophageal cancer cell). As to the kind of experiment: CCK-8 anti-proliferation assay, TE-1. As to conditions: at 20 µM, 48 h, mean ± SEM, read-out: Inhibition Rate (%). The format is cell-based. The procedure: as §1
Series [10] deals with 5637 (HTB-9) (human bladder cancer cell). As to the kind of experiment: CCK-8 anti-proliferation assay, 5637 (HTB-9). The class given is cell-based. Here is the method: as §1
Series [11] has as its system GBC-SD (human gallbladder carcinoma cell). Nature of the series: CCK-8 anti-proliferation assay, GBC-SD. The settings on record: at 20 µM, 48 h, mean ± SEM, read-out: Inhibition Rate (%). The format is cell-based. The procedure: as §1
The test system of series [12] is L-02 (human hepatocyte cell). As to the kind of experiment: CCK-8 anti-proliferation assay, L-02. The format is cell-based. The settings on record: L-02 normal liver cells, at 20 µM, 48 h, mean ± SEM, read-out: Inhibition Rate (%). Here is the method:
as §1

The test system of series [13] is MCF7 (human breast cancer cell). As to the kind of experiment: CCK-8 anti-proliferation assay, MCF7. The class given is cell-based. As to conditions: at 20 µM, 48 h, mean ± SEM, read-out: Inhibition Rate (%). Here is the method:
as §1

The test system of series [14] is HepG2 (human liver carcinoma cell). As to the kind of experiment: CCK-8 anti-proliferation assay, HepG2. The format is cell-based. The procedure:
as §1

For series [15], the system named is SF126 (human glioblastoma cell). Nature of the series: CCK-8 anti-proliferation assay, SF126. The format is cell-based. The settings on record: SF-126, at 20 µM, 48 h, mean ± SEM, read-out: Inhibition Rate (%). The procedure: as §1
Series [16] has as its system DU145 (human prostate carcinoma cell). Nature of the series: CCK-8 anti-proliferation assay, DU145. The class given is cell-based. The settings on record: DU-145, at 20 µM, 48 h, mean ± SEM, read-out: Inhibition Rate (%). The procedure: as §1
In series [17] the test system is CAL-62 (human thyroid anaplastic carcinoma cell). Nature of the series: CCK-8 anti-proliferation assay, CAL-62. The format is cell-based. As to conditions: at 20 µM, 48 h, mean ± SEM, read-out: Inhibition Rate (%). Here is the method:
as §1

The test system of series [18] is PATU8988T (human pancreatic cancer cell). As to the kind of experiment: CCK-8 anti-proliferation assay, PATU8988T. The settings on record: PaTu 8988t, at 20 µM, 48 h, mean ± SEM, read-out: Inhibition Rate (%). The class given is cell-based. The procedure: as §1
In series [19] the test system is HOS (human osteosarcoma cell). As to the kind of experiment: CCK-8 anti-proliferation assay, HOS. The settings on record: at 20 µM, 48 h, mean ± SEM, read-out: Inhibition Rate (%). The format is cell-based. The procedure: as §1
The subject of series [20] is A-375 (human melanoma cell). Nature of the series: CCK-8 anti-proliferation assay, A-375. The format is cell-based. As to conditions: at 20 µM, 48 h, mean ± SEM, read-out: Inhibition Rate (%). Here is the method:
as §1

The next series has as its system A-673 (Ewing sarcoma). Nature of the series: CCK-8 anti-proliferation assay, A-673. The format is cell-based. As to conditions: Homo sapiens, A673, at 20 µM, 48 h, mean ± SEM, read-out: Inhibition Rate (%). The procedure:
as §1

Series [21] deals with 293T (human embryonic kidney cell). As to the kind of experiment: CCK-8 anti-proliferation assay, 293T. The class given is cell-based. As to conditions: HEK-293T, at 20 µM, 48 h, mean ± SEM, read-out: Inhibition Rate (%). The procedure:
as §1

In a further series the test system is 5637 (HTB-9) cells. As to the kind of experiment: Apoptosis assay, Annexin V-FITC/PI flow cytometry. The format is cell-based, human. The settings on record: 48 h. The procedure:
Next, the apoptosis study of compound ([…])-5 was investigated against 5637 (HTB-9) cells based on a standard flow cytometry technique and assessed by Annexin V-FITC/PI staining. […] The percent of apoptosis in cells was assayed according to the instructions (Vazyme, A211). 5637 (HTB-9) cells were seeded in 6-well plates at 2 × 10^5 cells/well overnight and treated with compound ([…])-5 at various concentrations for 48 h. Trypsinization of the cells occurred without EDTA and they were collected in tubes and suspended in 100 μL ice-cold 1 × binding buffer after being washed twice with PBS. Cells were stained with PI and FITC Annexin V for 10 min at room temperature following the instructions of the Annexin V FITC/PI kit (Vazyme Biotech, Nanjing, China). Next, 200 μL ice-cold 1 × binding buffer was added. The result was measured by flow cytometry (MoFlo XDP, Beckman, Pasadena, CA, USA). For each condition, a minimum of 10,000 cells were analyzed. Triplicate experiments were performed independently.
A general note: A flow cytometer gives signals particle by particle.

Converted amounts (≈) assume the structure as drawn. A value given as a limit tells only on which side of the number the result lay.

What is called inhibition is the drop in the measured response relative to a control, in per cent. One may read the LC50 as the concentration that kills 50% of the test population. Usually IC50 stands for the midpoint of a concentration-inhibition curve.

For `CC(=O)OCC(C)CCC[C@@H](C)[C@H]1CC[C@H]2[C@@H]3CC(=O)[C@@]4(O)C[C@@H](O)CC[C@]4(C)[C@H]3CC[C@]12C` (stereo partly drawn) [compound 5], in series [1], the inhibition at 10 µM was 18.3 ± 3.8%. In addition, the LC50 in [2] is reported as 0.9 µg/mL (≈ 1.89 µM).

As to `CC(=O)OC[C@H](C)CCC[C@@H](C)[C@H]1CC[C@H]2[C@@H]3CC(=O)[C@@]4(O)C[C@@H](O)CC[C@]4(C)[C@H]3CC[C@]12C` [compound (25R)-5, (2R,6R)-6-((3S,5R,8S,9S,10R,13R,14S,17R)-3,5-Dihydroxy-10,13-Dimethyl-6-Oxohexadecahydro-1H-Cyclopenta[a]Phenanthren-17-yl)-2-Methylheptyl Acetate], in series [1], the inhibition at 10 µM was 29.4 ± 7.1%. The inhibition at 20 µM in series [3] (Homo sapiens, K562, at 20 µM, read-out: Inhibition Rate (%)) is 17.1 ± 2.8%; in series [4], at most 50%; in [5], 61.1 ± 1.4%; in [6], 59.3 ± 3.8%; in [7], 22.7 ± 1.2%; in [8], 65.3 ± 0.5%. Further, the inhibition at 20 µM was 29.5 ± 2.2% in [9]; 64.7 ± 3.4% in series [10] (5637 (HTB-9), at 20 µM, 48 h, mean ± SEM, read-out: Inhibition Rate (%)); 28.1 ± 1.5% in series [11]; -4.9 ± 3.4% in series [12]; 19.3 ± 2.1% in series [13]; 66.8 ± 2.1% in [14] (at 20 µM, 48 h, mean ± SEM, read-out: Inhibition Rate (%)). Besides, the inhibition at 20 µM in series [15] came to 28.1 ± 0.5%; in series [16], 12.2 ± 2%; in [17], 18.2 ± 1.9%; in series [18], 65.9 ± 4.2%; in series [19] it was 22.2 ± 1.1%; in [20], 76.3 ± 1.7%. In addition, the inhibition at 20 µM is 49.4 ± 1.4% with A-673 (Ewing sarcoma) and 26.2 ± 1.5% in series [21]. The “Inhibition Rate (%)” value in series [3] (at 20 µM) is listed as “weak inhibition activity”. The IC50 in series [10] (CCK-8, 48 h, read-out: IC50 against 5637 (HTB-9) cells) worked out at 4.8 µM; in [14] (CCK-8, 48 h, read-out: IC50 against HepG2 cells), 15.5 µM. Also, in the series with 5637 (HTB-9) cells, the “induction of apoptosis (early-stage Annexin V-FITC+/PI- and late-stage Annexin V-FITC+/PI+)” value is “induced apoptotic cell death in a dose-dependent manner”.

The values are drawn from publication PMC10053440, “Semi-Synthesis and Biological Evaluation of 25(R)-26-Acetoxy-3β,5α-Dihydroxycholest-6-One” (Marine Drugs, 2023).
